Measurements as given in US12162867B2, “Inhibitors of RNA helicase DHX9 and uses thereof” (ACCENT THERAPEUTICS, INC., priority 2022, dated 2024).

Test system: circBRIP1 in HCT116 cells
Assay: DHX9 circBRIP1 cellular target engagement TaqMan Multiplex assay (qPCR)
Type: cell-based
Settings: Homo sapiens, HCT-116, 72 h, circBRIP1, HCT116 cells, 72 hours; Taqman assay (marked *); read-out: DHX9 Cellular Target Engagement EC50

Row | EC50 [µM] | Compound
1 | 1.97 | Cc1cccnc1-c1ccc(C(=O)Nc2cc(Cl)cc(NS(C)(=O)=O)c2)s1 [Example 386]
2 | 0.228 | Cc1cc(F)cnc1-c1cc(C(=O)Nc2cc(Cl)cc(NS(C)(=O)=O)c2)sc1C [Example 348]
3 | 0.219 | Cc1sc(C(=O)Nc2cc(Cl)cc(NS(C)(=O)=O)c2)cc1-c1ncc(C(F)(F)F)cc1C#N [Example 367]
4 | 0.68 | Cc1sc(C(=O)Nc2cc(Cl)cc(NS(C)(=O)=O)c2)cc1-c1ncc(C#N)cc1F [Example 375]
5 | 0.31 | Cc1sc(C(=O)Nc2cc(Cl)cc(NS(C)(=O)=O)c2)cc1-c1ncc(C(F)(F)F)cc1F [Example 368]
6 | 0.387 | COc1cnc(-c2cc(C(=O)Nc3cc(Cl)cc(NS(C)(=O)=O)c3)sc2C)c(Cl)c1 [Example 364]
7 | 0.506 | Cc1cccnc1-c1csc(C(=O)Nc2cc(Cl)cc(NS(=O)(=O)C(C)C)c2)c1 [Example 373]
8 | 0.171 | CS(=O)(=O)Nc1cc(Cl)cc(NC(=O)c2cc(-c3ccc(C(F)(F)F)cn3)cs2)c1 [Example 370]

Same assay, conditions: Homo sapiens, HCT-116, circBRIP1, HCT116 cells; * Taqman assay was used; read-out: DHX9 Cellular Target Engagement EC50

Row | EC50 [µM] | Compound
9 | 0.0892 | Cc1sc(C(=O)Nc2cc(Cl)cc(NS(C)(=O)=O)c2)cc1-c1ncccc1OC(C)c1cncc(F)c1 (stereo not drawn) [Example 630]
10 | > 10 | Cc1sc(C(=O)Nc2cc(Cl)cc(NS(C)(=O)=O)c2)c(F)c1-c1ncc(OC(C)C)cn1 [Example 683]
11 | 0.14 | Cn1cc(C(=O)Nc2cc(Cl)cc(NS(C)(=O)=O)c2)cc1-c1ccc(N2CCN(C(=O)C3CC3)CC2)cn1 [Example 594]
12 | 0.312 | CS(=O)(=O)Nc1cc(Cl)cc(NC(=O)c2cc(-c3ncc(F)cn3)n(C3CC3)c2)c1 [Example 712]
13 | 0.387 | COc1ccc(F)c(-c2cc(C(=O)Nc3cc(Cl)cc(NS(C)(=O)=O)c3)cn2C)n1 [Example 703]
14 | 2.91 | Cn1cc(C(=O)Nc2cc(F)cc(NS(C)(=O)=O)c2)cc1-c1ncc(F)cc1F [Example 558]
15 | 0.158 | Cc1cc(N2CC(F)(F)C2)cnc1-c1cc(C(=O)Nc2cc(Cl)cc(NS(C)(=O)=O)c2)cn1C [Example 461]
16 | 0.13 | Cc1cc(C(=O)Nc2cc(Cl)cc(NS(C)(=O)=O)c2)cn1-c1ncc(N2CC(F)(F)C2)cc1OC1CCC1 [Example 673]
17 | 0.71 | Cn1cc(C(=O)Nc2cc(Cl)cc(NS(C)(=O)=O)c2)cc1-c1ccccc1/C=C/c1cncc(F)c1 [Example 727]
18 | 0.461 | CCc1sc(C(=O)Nc2cc(Cl)cc(NS(C)(=O)=O)c2)cc1-c1ncc(F)cc1F [Example 588]
19 | > 10 | Cn1cc(C(=O)Nc2cc(Cl)cc(NS(=O)(=O)C3CC3)c2)cc1-c1ccc(N2CC(F)(F)C2)cn1 [Example 530]
20 | 0.18 | Cc1cc(N2CCC(F)(F)CC2)cnc1-c1cc(C(=O)Nc2cc(Cl)cc(NS(C)(=O)=O)c2)sc1C [Example 602]
21 | 0.427 | Cc1cc(C(=O)Nc2cc(Cl)cc(NS(C)(=O)=O)c2)cn1-c1ncc(F)cc1-c1cncc(F)c1 [Example 666]
22 | 0.14 | Cc1cc(C(=O)Nc2cc(Cl)cc(NS(C)(=O)=O)c2)cn1-c1ncc(OC(C)(C)C)cc1F [Example 662]
23 | 0.871 | CCS(=O)(=O)Nc1cc(Cl)cc(NC(=O)c2cc(-c3ncc(C(F)(F)F)cc3C)c(C)s2)c1 [Example 700]
24 | 0.223 | Cc1cc(C(=O)Nc2cc(Cl)cc(NS(C)(=O)=O)c2)cn1-c1ncc(N2CCOC2=O)cn1 [Example 417]
25 | 0.804 | CC(C)n1cc(C(=O)Nc2cc(Cl)cc(NS(C)(=O)=O)c2)cc1-c1ncc(F)cn1 [Example 667]
26 | 0.427 | Cc1sc(C(=O)Nc2cc(Cl)cc(NS(C)(=O)=O)c2)cc1-c1ncc(OC2CNC2)cc1F [Example 637]
27 | > 10 | Cc1cccnc1-c1csc(C(=O)Nc2cc(Cl)cc(NS(C)(=O)=O)c2)c1C [Example 684]
28 | 0.161 | Cc1cc(C(=O)Nc2cc(Cl)cc(NS(C)(=O)=O)c2)cn1-c1ncc(N2CC(F)(F)C2)cc1Cl [Example 406]
29 | 0.183 | CCS(=O)(=O)Nc1cc(Cl)cc(NC(=O)c2cc(-c3ncc(F)cc3F)n(C)c2)c1 [Example 543]
30 | 0.131 | Cn1cc(C(=O)Nc2cc(Cl)cc(NS(C)(=O)=O)c2)cc1-c1ccc(N2CC3(C2)CC(F)(F)C3)cn1 [Example 498]
31 | 0.121 | Cc1cc(N2CC(F)(F)C2)cnc1-n1cc(C(=O)Nc2cc(Cl)cc(NS(C)(=O)=O)c2)cc1C [Example 419]
32 | 0.191 | Cn1cc(C(=O)Nc2cc(Cl)cc(NS(C)(=O)=O)c2)cc1-c1ccc(N2CC(S(C)(=O)=O)C2)cn1 [Example 519]

Row | EC50 [µM] | Compound
33 | 0.177 | Cc1cc(C(=O)Nc2cc(Cl)cc(NS(C)(=O)=O)c2)cn1-c1ncc(N2CCC(F)(F)C2)cn1 [Example 409]
34 | 0.253 | Cc1sc(C(=O)Nc2cc(Cl)cc(NS(=O)(=O)CCO)c2)cc1-c1ncc(N2CC(C(F)(F)F)C2)cc1F [Example 529]
35 | 0.319 | CCS(=O)(=O)Nc1cc(Cl)cc(NC(=O)c2cc(C)n(-c3ncc(F)cc3F)c2)c1 [Example 445]
36 | 0.133 | Cc1sc(C(=O)Nc2cc(Cl)cc(NS(C)(=O)=O)c2)cc1-c1ncc(C2(O)CN(C)C2)cc1F [Example 681]
37 | 0.285 | CS(=O)(=O)Nc1cc(Cl)cc(NC(=O)c2cc(-c3ncc(N4CC(F)(F)C4)cc3F)cs2)c1 [Example 488]
38 | 0.128 | Cc1sc(C(=O)Nc2cc(Cl)cc(NS(C)(=O)=O)c2)cc1-c1ncc(N2CCC(C(F)(F)F)CC2)cc1F [Example 481]
39 | > 10 | Cc1cc(F)cc(C#N)c1-c1cc(C(=O)Nc2cc(Cl)cc(NS(C)(=O)=O)c2)cn1C [Example 659]
40 | 9.03 | Cc1sc(C(=O)Nc2cc(Cl)cc(NS(C)(=O)=O)c2)cc1-c1ncc(F)cc1N1CCS(=O)(=O)CC1 [Example 503]
41 | 0.442 | Cc1ccnc(OCc2cncc(F)c2)c1-c1cc(C(=O)Nc2cc(Cl)cc(NS(C)(=O)=O)c2)cn1C [Example 624]
42 | 1.01 | Cn1cc(C(=O)Nc2cc(Cl)cc(NS(C)(=O)=O)c2)cc1-c1ncc(F)cc1OCc1nnnn1C [Example 625]
43 | 0.156 | Cc1cnc(-c2cc(C(=O)Nc3cc(Cl)cc(NS(C)(=O)=O)c3)cn2C)c(F)c1 [Example 580]
44 | 0.135 | Cc1cc(C(=O)Nc2cc(Cl)cc(NS(C)(=O)=O)c2)cn1-c1ncc(N2CCCC2=O)cn1 [Example 401]
45 | 0.0945 | CN1CC[C@H](Oc2cnc(-c3cc(C(=O)Nc4cc(Cl)cc(NS(C)(=O)=O)c4)cn3CC(F)(F)F)nc2)C1 [Example 642]
46 | 0.13 | Cn1cc(C(=O)Nc2cc(Cl)cc(NS(C)(=O)=O)c2)cc1-c1ccc(N2CCN(C(=O)C(C)(C)C)CC2)cn1 [Example 591]
47 | 3.77 | CS(=O)(=O)Nc1cc(Cl)cc(NC(=O)c2cc(-c3ncc(F)cn3)n(C3CNC3)c2)c1 [Example 652]
48 | 0.154 | Cc1cc(C(=O)Nc2cc(Cl)cc(NS(C)(=O)=O)c2)cn1-c1ncc(N2CC(F)(F)C2)cc1OC(C)C [Example 672]
49 | 0.0266 | CN1CC[C@H](Oc2cnc(-c3cc(C(=O)Nc4cc(Cl)cc(NS(C)(=O)=O)c4)cn3C)c(F)c2)C1 [Example 639, N-(3-chloro-5-methanesulfonamidophenyl)-5-(3-fluoro-5-{[(3S)-1-methylpyrrolidin-3-yl]oxy}pyridin-2-yl)-1-methylpyrrole-3-carboxamide]
50 | 0.128 | CCc1sc(C(=O)Nc2cc(Cl)cc(NS(C)(=O)=O)c2)cc1-c1ncccc1F [Example 587]
51 | 0.21 | Cc1sc(C(=O)Nc2cc(Cl)cc(NS(=O)(=O)CCO)c2)cc1-c1ncc(OC(C)C)cn1 [Example 582]
52 | 0.171 | CCc1cncc(COc2cccnc2-c2cc(C(=O)Nc3cc(Cl)cc(NS(C)(=O)=O)c3)cn2C)c1 [Example 730]
53 | 0.0431 | Cc1sc(C(=O)Nc2cc(Cl)cc(NS(C)(=O)=O)c2)cc1-c1ncc(O)cn1 [Example 583]
54 | 0.638 | CS(=O)(=O)Nc1cc(Cl)cc(NC(=O)c2cc(-c3ccc(F)cn3)n(S(C)(=O)=O)c2)c1 [Example 701]
55 | 0.998 | Cc1sc(C(=O)Nc2cc(Cl)cc(NS(C)(=O)=O)c2)cc1-c1ccc(P(C)(C)=O)cn1 [Example 647]

Same assay, conditions: Homo sapiens, HCT-116, circBRIP1, HCT116 cells; cell carries no mark, SyBr or Taqman not indicated; read-out: DHX9 Cellular Target Engagement EC50

Row | EC50 [µM] | Compound
56 | 0.372 | Cc1sc(C(=O)Nc2cc(Cl)cc(NS(C)(=O)=O)c2)cc1-c1c(F)cc(F)c[n+]1[O-] [Example 736]

Same assay, conditions: Homo sapiens, HCT-116, read-out: DHX9 Cellular Target Engagement EC50 (μM)

Row | Compound | EC50 [µM]
57 | Cn1cc(C(=O)Nc2cc(Cl)cc(NS(C)(=O)=O)c2)cc1-c1ncc(N2CC[Si](C)(C)CC2)cc1F [Example 470] | 0.62

Test system: LS411N cells
Assay: DHX9 cellular proliferation assay (CellTiter-Glo), LS411N (CRC-MSI)
Type: cell-based
Settings: Homo sapiens, LS-411N, LS411N, CRC-MSI-H; performed at Pharmaron; read-out: LS411N (CRC-MSI-H) Antiproliferative IC50

Row | Compound | IC50 [nM]
58 | CS(=O)(=O)Nc1cc(Cl)cc(NC(=O)c2cnn(-c3ncccc3OCc3cc(F)cc(F)c3)c2)c1 [Example 187] | 77.3

Same assay, conditions: Homo sapiens, LS-411N, LS411N; performed at Pharmaron; read-out: LS411N (CRC-MSI-H) Antiproliferative IC50

Row | Compound | IC50 [nM]
59 | Cc1sc(C(=O)Nc2cc(Cl)cc(NS(C)(=O)=O)c2)cc1-c1ncccc1OC(C)c1cncc(F)c1 (stereo not drawn) [Example 630] | 98.3
60 | CC(Oc1cccnc1-c1cc(C(=O)Nc2cc(Cl)cc(NS(C)(=O)=O)c2)cn1C)c1cc(F)cc(C(F)(F)F)c1 (single isomer, unassigned) [Example 629, N-(3-chloro-5-methanesulfonamidophenyl)-5-{3-[1-[3-fluoro-5-(trifluoromethyl)phenyl]ethoxy]pyridin-2-yl}-1-methyl-1H-pyrrole-3-carboxamide] | 69.2

Test system: NCI-H747 cells
Assay: DHX9 cellular proliferation assay (CellTiter-Glo), NCI-H747 (CRC-MSS)
Type: cell-based
Settings: Homo sapiens, NCI-H747, NCI-H747, CRC-MSS; performed at Pharmaron; read-out: H747 (CRC-MSS) Antiproliferative IC50

Row | IC50 [nM] | Compound
61 | > 10000 | CS(=O)(=O)Nc1cc(Cl)cc(NC(=O)c2cnn(-c3ncccc3OCc3cc(F)cc(F)c3)c2)c1 [Example 187]

Same assay, conditions: Homo sapiens, NCI-H747, NCI-H747; performed at Pharmaron; read-out: H747 (CRC-MSS) Antiproliferative IC50

Row | IC50 [nM] | Compound
62 | > 10000 | CC(Oc1cccnc1-c1cc(C(=O)Nc2cc(Cl)cc(NS(C)(=O)=O)c2)cn1C)c1cc(F)cc(C(F)(F)F)c1 (single isomer, unassigned) [Example 629, N-(3-chloro-5-methanesulfonamidophenyl)-5-{3-[1-[3-fluoro-5-(trifluoromethyl)phenyl]ethoxy]pyridin-2-yl}-1-methyl-1H-pyrrole-3-carboxamide]
63 | 3800 | Cc1sc(C(=O)Nc2cc(Cl)cc(NS(C)(=O)=O)c2)cc1-c1ncc(N2CC(C(F)(F)F)C2)cc1F [Example 460, N-(3-chloro-5-(methylsulfonamido)phenyl)-4-(3-fluoro-5-(3-(trifluoromethyl)azetidin-1-yl)pyridin-2-yl)-5-methylthiophene-2-carboxamide]
